In patent publication US10238670B2, “9-aminomethyl minocycline compounds and methods of use thereof in urinary tract infection (UTI) treatment” (Paratek Pharmaceuticals, Inc., priority 2016, dated 2019):

Assay: Phase 1b study in female adults with cystitis, urine PK
Format: in vivo, human
Conditions: urine
Description: Urine was collected, the volume recorded, and analyzed for Compound 1 concentration at the following times: • Day 1 to 2: pooled total urine 0 to 4, 4 to 8, 8 to 12, and 12-24 hours after the t=0 h dose; Collection of the 12 to 24 h sample should be completed prior to the t=24 h dose on Day 2; • Day 5 to 6: pooled total urine 0 to 4, 4 to 8, 8 to 12, and 12-24 hours after the t=96 h dose;
Urine was pooled during the intervals above. At the end of each interval, the time and total volume were recorded.
Compound 1 urine concentration data was used to determine the amount excreted in a dosing interval, the urinary excretion rate, and, in conjunction with the plasma concentration data, to estimate the renal clearance (CLr) of Compound 1.
Urine was collected and the volume recorded at the following times: • Day 1 to 2: pooled total urine 0 to 4, 4 to 8, 8 to 12, and 12-24 hours after the t=0 h dose; • Day 5 to 6: pooled total urine 0 to 4, 4 to 8, 8 to 12, and 12-24 hours after the t=96 h dose;
At the end of each collection time period the pooled urine was frozen at −20° C. or colder and the total volume of urine collected for the time period was recorded. The samples were kept frozen at −20° C. or colder pending shipment to the bioanalytical laboratory.
The urine sample volume, its Compound 1 concentration, the amount of Compound 1 excreted in the urine (product of volume and concentration) over a dosing interval, the urinary excretion rates and renal clearance (CLr) of Compound 1 following the initial Day 1 and final Day 5 doses were summarized by the treatment groups.

For `CN(C)c1cc(CNCC(C)(C)C)c(O)c2c1C[C@H]1C[C@H]3[C@H](N(C)C)C(O)=C(C(N)=O)C(=O)[C@@]3(O)C(O)=C1C2=O` [Compound 1, 9-[(2,2-dimethyl-propylamino)-methyl]-minocycline], the “Ae 12-24 hrs, Mean” value (Day 1, IV_PO300) was 14.00 mg, the “Ae 12-24 hrs, Median” value (Day 1, IV_PO300) was 12.32 mg and the “Fe 0-24 hrs, Geo. Mean” value (Day 1, IV_PO300) was 18.49%. For the same compound, the “Fe 0-24 hrs, Mean” value (Day 1, IV_PO300) was 20.35%, the “Fe 0-24 hrs, Median” value (Day 1, IV_PO300) was 20.70% and the “Ae 0-4 hrs, Geo. Mean” value (Day 1, PO300) was 5.90 mg. The “Ae 0-4 hrs, Mean” value (Day 1, PO300) was 6.41 mg, the “Ae 0-4 hrs, Median” value (Day 1, PO300) was 6.58 mg and the “Ae 0-24 hrs, Geo. Mean” value (Day 1, PO300) was 36.94 mg. For the same compound, the “Ae 0-24 hrs, Median” value (Day 1, PO300) was 39.07 mg, the “Ae 4-8 hrs, Geo. Mean” value (Day 1, PO300) was 6.42 mg and the “Ae 4-8 hrs, Mean” value (Day 1, PO300) was 7.60 mg. The “Ae 4-8 hrs, Median” value (Day 1, PO300) was 6.28 mg, the “Ae 8-12 hrs, Geo. Mean” value (Day 1, PO300) was 7.22 mg and the “Ae 8-12 hrs, Mean” value (Day 1, PO300) was 9.17 mg. The “Ae 8-12 hrs, Median” value (Day 1, PO300) was 6.86 mg, the “Ae 12-24 hrs, Geo. Mean” value (Day 1, PO300) was 14.19 mg and the “Ae 12-24 hrs, Mean” value (Day 1, PO300) was 16.82 mg. The “Ae 12-24 hrs, Median” value (Day 1, PO300) was 16.30 mg, the “Fe 0-24 hrs, Geo. Mean” value (Day 1, PO300) was 6.16% and the “Fe 0-24 hrs, Mean” value (Day 1, PO300) was 6.54%. The “Fe 0-24 hrs, Median” value (Day 1, PO300) was 6.51%, the “Ae 0-4 hrs, Geo. Mean” value (Day 1, PO450) was 3.96 mg and the “Ae 0-4 hrs, Mean” value (Day 1, PO450) was 7.27 mg. The “Ae 0-4 hrs, Median” value (Day 1, PO450) was 5.05 mg, the “Ae 0-24 hrs, Geo. Mean” value (Day 1, PO450) was 34.07 mg and the “Ae 0-24 hrs, Median” value (Day 1, PO450) was 37.30 mg. The “Ae 4-8 hrs, Geo. Mean” value (Day 1, PO450) was 6.00 mg, the “Ae 4-8 hrs, Mean” value (Day 1, PO450) was 7.11 mg and the “Ae 4-8 hrs, Median” value (Day 1, PO450) was 6.16 mg. The “Ae 8-12 hrs, Geo. Mean” value (Day 1, PO450) was 4.75 mg, the “Ae 8-12 hrs, Mean” value (Day 1, PO450) was 5.36 mg and the “Ae 8-12 hrs, Median” value (Day 1, PO450) was 5.27 mg. The “Ae 12-24 hrs, Geo. Mean” value (Day 1, PO450) was 14.57 mg, the “Ae 12-24 hrs, Mean” value (Day 1, PO450) was 16.92 mg and the “Ae 12-24 hrs, Median” value (Day 1, PO450) was 15.98 mg. The “Fe 0-24 hrs, Geo. Mean” value (Day 1, PO450) was 3.79%, the “Fe 0-24 hrs, Mean” value (Day 1, PO450) was 3.99% and the “Fe 0-24 hrs, Median” value (Day 1, PO450) was 4.14%. The “Ae 0-4 hrs, Geo. Mean” value (Day 5, IV_PO300) was 3.89 mg, the “Ae 0-4 hrs, Mean” value (Day 5, IV_PO300) was 7.74 mg and the “Ae 0-4 hrs, Median” value (Day 5, IV_PO300) was 4.99 mg. The “Ae 0-24 hrs, Geo. Mean” value (Day 5, IV_PO300) was 21.72 mg, the “Ae 0-24 hrs, Median” value (Day 5, IV_PO300) was 31.29 mg and the “Ae 4-8 hrs, Geo. Mean” value (Day 5, IV_PO300) was 5.22 mg. The “Ae 4-8 hrs, Mean” value (Day 5, IV_PO300) was 8.38 mg, the “Ae 4-8 hrs, Median” value (Day 5, IV_PO300) was 7.13 mg and the “Ae 8-12 hrs, Geo. Mean” value (Day 5, IV_PO300) was 3.94 mg. The “Ae 8-12 hrs, Mean” value (Day 5, IV_PO300) was 6.28 mg, the “Ae 8-12 hrs, Median” value (Day 5, IV_PO300) was 6.47 mg and the “Ae 12-24 hrs, Geo. Mean” value (Day 5, IV_PO300) was 7.31 mg. The “Ae 12-24 hrs, Mean” value (Day 5, IV_PO300) was 10.71 mg, the “Ae 12-24 hrs, Median” value (Day 5, IV_PO300) was 11.25 mg and the “Fe 0-24 hrs, Geo. Mean” value (Day 5, IV_PO300) was 7.24%. For the same compound, the “Fe 0-24 hrs, Mean” value (Day 5, IV_PO300) was 10.76%, the “Fe 0-24 hrs, Median” value (Day 5, IV_PO300) was 10.43% and the “Ae 0-4 hrs, Geo. Mean” value (Day 5, PO300) was 7.20 mg. The “Ae 0-4 hrs, Mean” value (Day 5, PO300) was 10.02 mg, the “Ae 0-4 hrs, Median” value (Day 5, PO300) was 9.35 mg and the “Ae 0-24 hrs, Geo. Mean” value (Day 5, PO300) was 31.46 mg. The “Ae 0-24 hrs, Median” value (Day 5, PO300) was 34.96 mg, the “Ae 4-8 hrs, Geo. Mean” value (Day 5, PO300) was 9.17 mg and the “Ae 4-8 hrs, Mean” value (Day 5, PO300) was 10.54 mg. The “Ae 4-8 hrs, Median” value (Day 5, PO300) was 8.05 mg, the “Ae 8-12 hrs, Geo. Mean” value (Day 5, PO300) was 5.02 mg and the “Ae 8-12 hrs, Mean” value (Day 5, PO300) was 6.74 mg. The “Ae 8-12 hrs, Median” value (Day 5, PO300) was 7.29 mg, the “Ae 12-24 hrs, Geo. Mean” value (Day 5, PO300) was 10.71 mg and the “Ae 12-24 hrs, Mean” value (Day 5, PO300) was 11.95 mg. The “Ae 12-24 hrs, Median” value (Day 5, PO300) was 11.38 mg, the “Fe 0-24 hrs, Geo. Mean” value (Day 5, PO300) was 10.49% and the “Fe 0-24 hrs, Mean” value (Day 5, PO300) was 12.74%. The “Fe 0-24 hrs, Median” value (Day 5, PO300) was 11.65%, the “Ae 0-4 hrs, Geo. Mean” value (Day 5, PO450) was 9.50 mg and the “Ae 0-4 hrs, Mean” value (Day 5, PO450) was 12.07 mg. The “Ae 0-4 hrs, Median” value (Day 5, PO450) was 11.76 mg, the “Ae 0-24 hrs, Geo. Mean” value (Day 5, PO450) was 43.60 mg and the “Ae 0-24 hrs, Median” value (Day 5, PO450) was 50.26 mg. For the same compound, the “Ae 4-8 hrs, Geo. Mean” value (Day 5, PO450) was 11.02 mg, the “Ae 4-8 hrs, Mean” value (Day 5, PO450) was 19.74 mg and the “Ae 4-8 hrs, Median” value (Day 5, PO450) was 10.30 mg. The “Ae 8-12 hrs, Geo. Mean” value (Day 5, PO450) was 6.01 mg, the “Ae 8-12 hrs, Mean” value (Day 5, PO450) was 7.54 mg and the “Ae 8-12 hrs, Median” value (Day 5, PO450) was 5.62 mg. For the same compound, the “Ae 12-24 hrs, Geo. Mean” value (Day 5, PO450) was 15.26 mg, the “Ae 12-24 hrs, Mean” value (Day 5, PO450) was 18.59 mg and the “Ae 12-24 hrs, Median” value (Day 5, PO450) was 20.23 mg. The “Fe 0-24 hrs, Geo. Mean” value (Day 5, PO450) was 9.69%, the “Fe 0-24 hrs, Mean” value (Day 5, PO450) was 12.19% and the “Fe 0-24 hrs, Median” value (Day 5, PO450) was 11.17%.
